2 compounds from patent publication US9095567B2, “Vaccine formulations” (priority 2010, dated 2015) can be followed below.

SMILES strings stand for the structures.

Assay type in all cases: cell-based
The test system of assay [1] is P. aeruginosa, S. aureus, E. coli and B. subtilis. Description: Preservative effectiveness test, multi-challenge method, all challenge organisms. The protocol: (§1) To represent the worst reasonable case of contamination that may occur in practice during the repeated use of a multi-dose presentation, WHO requires safety testing with deliberate exposure to multiple contamination events using bacterial strains, Pseudomonas Aeruginosa (“PA”), Staphylococcus Aureus (“SA”), Escherichia coli (“EC”) and Bacillus subtilis (“BA”). Formulations are spiked with 5×10^3 CFU/ml of each organism at times 0, 6 hours, 24 hours, 7 days and 14 days after initial challenge and stored either at 2-8° C. or at 22-24° C. to mimic the potential storage conditions in practice.
(§2) To assess the appropriateness of WHO multi-dose Open Vial Policy of vaccines in multiple immunization sessions for up to maximum of four weeks, experimental design provided by WHO was implemented. In this study, the effectiveness of Thimerosal was evaluated at the concentration that is present in the majority of U.S. licensed vaccines (0.01%), as well as at a higher concentration of 0.02%. To represent the worst reasonable case of contamination that may occur in practice during the repeated use of a multi-dose presentation, and to test WHO requirements, Prev(e)nar 13 vaccine formulations with 0.01 or 0.02% Thimerosal or with 5.0 mg/dose of 2-PE were deliberately exposed to multiple contamination events using WHO recommended bacterial strains, P. aeruginosa, S. aureus, E. coli and B. subtilis. Formulations were spiked with 5×10^3 CFU/ml of each organism at times 0, 6 hours, 24 hours, 7 days and 14 days after initial challenge and stored either at 2-8° C. or at 22-24° C. to mimic the potential storage conditions in practice. Saline formulation containing 0.02% Thimerosal was also used as a control to evaluate the potential impact of Prev(e)nar 13 on the antimicrobial efficacy of Thimerosal in the formulation.

Assay [2] concerns Staphylococcus aureus, Pseudomonas aeruginosa, Candida albicans, Aspergillus niger. Kind of assay: Preservative effectiveness test, single challenge, all challenge organisms (pharmacopeial acceptance criteria). The conditions noted are these: for preservative effectiveness after storage: 2-PE at 3.5 to 5.0 mg/dose. The source says: For ascertaining preservative levels according to U.S. and European Pharmacopeias (USP and EP, respectively), the vaccine formation is inoculated once with approximately 10^5 to 10^6 CFU/ml at time 0 (CFU=colony forming units) of:
USP 29 NF 24 Supplement 2 (USP) requires that, after an inoculation of bacterial micro-organism(s), there is at least 1.0 log reduction from the initial calculated count (i.e., at time of inoculation) at 7 days, at least 3.0 log reduction at 14 days from the previous value measured, and no increase at 28 days compared to the previous value measured. For yeast and fungi, the USP requirement is for there to be no increase from time of inoculation at 7, 14 and 28 days.
EP requirements are more stringent. EP 5th Edition 5.6 (5.1.3) requirements for parenteral and ophthalmic preparations has two components: Category A and Category B. Category A (EP-A) requires, for bacteria, at least 2.0 log reduction from the initial calculated count at 6 hours after inoculation, at least 3.0 log reduction from the previous value measured at 24 hours and no recovery at 28 days. Category B (EP-B) requires, for bacteria, at least 1.0 log reduction from the initial calculated count at 24 hours, at least 3.0 log reduction at 7 days from the previous value measured and not more than 0.5 log increase from the previous value measured (i.e., no increase) at 28 days. For yeast and fungi, Category A requires at least 2.0 log reduction at 7 days from the initial calculated count, and no increase at 28 days from the previous measured value; and Category B requires at least 1.0 log reduction from the initial calculated count at 14 days and no increase at 28 days from the previous measured value.
Thirty milliliters (ml) of each vaccine formulation with and without Thimerosal or 2-PE at indicated concentrations or saline containing Thimerosal at 0.02% were inoculated in triplicates with a suspension of each test organism to achieve an inoculum density of approximately 10^5 to 10^6 CFU/ml at time 0 (CFU=colony forming units). […] Samples were mixed to ensure even distribution of challenged organisms. Another 30 ml of vaccine in triplicate (with and without preservative) were used as a negative control and spiked with the culture media alone to evaluate the inherent contamination that might be present in the sample or media. Each of the three series of vaccines, and positive and negative controls, was then separately incubated at 20 to 25° C. Aliquots (1 ml) of the challenged samples and controls (or their appropriate serial ten fold dilutions) were enumerated by plate count in duplicates at time 0 and at intervals of 6 hours, 24 hours, 7 days, 14 days and 28 days post-inoculation.
USP 29 NF 24 Supplement 2 (USP) requires that, after an inoculation of bacterial micro-organism(s), there is at least 1.0 log reduction from the initial calculated count (i.e., at time of inoculation) at 7 days, at least 3.0 log reduction at 14 days from the previous value measured and no increase at 28 days from the previous measured value. For yeast and fungi, the USP requirement is for there to be no increase from the time of inoculation to 7, 14 and 28 days.
EP requirements are more stringent. EP 5th Edition 5.6 (5.1.3) requirements for parenteral and ophthalmic preparations has two components: Category A and Category B. Category A (EP-A) requires, for bacteria, at least 2.0 log reduction from the initial calculated count at 6 hours after inoculation, at least 3.0 log reduction at 24 hours from the previous measured value, and no recovery at 28 days. Category B (EP-B) requires, for bacteria, at least 1.0 log reduction at 24 hours from the initial calculated count, at least 3.0 log reduction at 7 days from the previous value measured and not more than 0.5 log increase at 28 days from the previous value measured (i.e., no increase).

Assay [3] relates to S. aureus. Kind of assay: Multi-challenge method, S. aureus decay (non-linear regression analysis). On the procedure: as §1, §2
As shown in the non-linear regression analysis of decay in the viability of S. aureus is summarized in FIG. 12, the rate of decay of S. aureus was substantially slower ([…], with 50% decay in 30.28 days) when formulation was stored at 2-8° C. compared to that stored at 22-24° C. (−1.39 log10 decay per day, with 50% decay in 6.2 days) (FIG. 12).

Setting [4] is: 0.02% Thimerosal in Prev(e)nar 13, 22-24° C. storage.
Setting [5] is: 0.02% Thimerosal in saline control formulation without vaccine.
[6] abbreviates: Thimerosal at 0.01% in Prev(e)nar 13 vaccine formulation, single challenge.
Where [7] appears, read: Thimerosal at 0.02% (50 μg mercury per dose), single challenge.
Setting [8] is: Thimerosal at 0.04% (100 μg mercury per dose), single challenge.
[9] abbreviates: 0.01% Thimerosal in Prev(e)nar 13, stored at 2-8° C.
[10] abbreviates: 0.01% Thimerosal in Prev(e)nar 13, stored at 22-24° C.
[11] abbreviates: 2-PE at 2.5 mg/dose, single challenge.

Take `C[CH2][Hg][S]c1ccccc1C(=O)[O-].[Na+]` [Thimerosal]: the “antibacterial effectiveness by organism” value in assay [1] (0.01% Thimerosal in Prev(e)nar 13, multiple challenges) is recorded as “highest on B. subtilis followed by P. aeruginosa”. Also, in assay [1] (setting [4]), the “EP requirements EP-A applied to multi-challenge studies” value was “did not meet” and the “EP requirements EP-B applied to multi-challenge studies” value is recorded as “did not meet”. Besides, in assay [1] (setting [5]), the “acceptance criteria of EP-A when multiply challenged” value is listed as “did not meet” and the “acceptance criteria of EP-B when multiply challenged” value is reported as “did not meet”. The “preservative effectiveness, concentration dependence” value in assay [1] (Thimerosal 0.02% versus 0.01%, multiple challenges) is on record as “more effective”. Also, the rate of inactivation result in assay [1] (Thimerosal in Prev(e)nar 13, particularly against S. aureus and E. coli) is on record as “slow”. In addition, in assay [1] (Thimerosal, any version tested), the “EP-B criteria under multiple challenge” value is reported as “no version of Thimerosal was able to do so”. For the same compound, the “preservative effectiveness, temperature dependence” value in assay [1] (Thimerosal, storage at 22-24° C. versus 2-8° C., multiple challenges) is on record as “more effective”. Further, the “contamination levels of all four inoculated micro-organisms” value in assay [2] (0.01% Thimerosal in Prev(e)nar 13, single challenge, 20-25° C., 28 days) is reported as “reduced”. Further, in assay [2] (setting [6]), the “European acceptance criteria EP-A” value is “did not meet”, the “European acceptance criteria EP-B” value was “did not meet”, the “acceptance limits established by the Japanese Pharmacopoeia” value was “did pass” and the “acceptance limits established by the U.S. Pharmacopoeia” value is recorded as “did pass”. Besides, in assay [2] (setting [7]), the “EP acceptance criteria A” value is “not” and the “EP acceptance criteria B” value is recorded as “met”. For the same compound, in assay [2] (setting [8]), the “EP acceptance criteria A” value was “not” and the “EP acceptance criteria B” value is recorded as “met”. Besides, the “reduction of S. aureus” value in assay [3] (0.01% Thimerosal in Prev(e)nar 13, multiple challenges, particularly at 2-8° C.) is listed as “slow”. In assay [3] (setting [9]), the “rate of decay of S. aureus” value is given as −5.98 log10 decay per day and the “time to 50% decay of S. aureus” value was 30.28 days. In assay [3] (setting [10]), the “rate of decay of S. aureus” value is listed as −1.39 log10 decay per day and the “time to 50% decay of S. aureus” value is recorded as 6.2 days. Also, the “rate of decay of S. aureus in saline formulation versus vaccine formulation” value in assay [3] (0.02% Thimerosal, multiple challenges) is “more pronounced”.
`OCCOc1ccccc1` [2-PE, 2-phenoxyethanol]: in assay [1] (5 mg/dose 2-PE in Prev(e)nar 13), the “EP-B criteria under multiple challenge” value was “met”. The “preservative effectiveness compared with 0.01% Thimerosal” value in assay [1] (5 mg/dose 2-PE, multi-challenge method, regardless of storage temperature, all organisms tested) is on record as “superior”. In addition, in assay [1] (2-PE at 3.5 to 5 mg/dose), the “rate of antimicrobial effectiveness compared to Thimerosal” value was “much higher”. Besides, in assay [2], the “EP-A anti-microbial effectiveness acceptance criteria” value is listed as “met”. Besides, the “EP-B anti-microbial effectiveness acceptance criteria” value in assay [2] is “met”. For the same compound, the “EP acceptance criteria A” value in assay [2] (setting [11]) was “failed”. Moreover, the “EP acceptance criteria B” value in assay [2] (setting [11]) is “failed”; in assay [2] (2-PE at concentrations of 3.5 to 5.5 mg/dose, single challenge), “met”. Besides, the “preservative acceptance criteria EP-B” value in assay [2] (2-PE at 3.5 mg/dose, single challenge) is “meet”; in assay [2] (2-PE at 5 mg/dose, single challenge), “meet”. Also, the “preservative effectiveness after storage” value was “remained persistent” in assay [2] (formulations stored at 2-8° C. for two and a half years); “remained persistent” in assay [2] (formulations stored at 37° C. for a month). Also, the “effectiveness as a preservative compared with Thimerosal” value in assay [2] (Prev(e)nar 13 formulation, single challenge) is reported as “more effective”. Besides, the “inactivation of S. aureus viability compared with Thimerosal” value in assay [3] (5 mg/dose of 2-PE in Prev(e)nar 13, single or multiple challenge, either storage temperature) is “stronger”. The “rate of S. aureus decay (50% decay and average slope) compared with Thimerosal” value in assay [3] (vaccine formulations with 2-PE, non-linear regression analysis) was “faster”.
